Legend:
[1] = system: rats, carrageenan-injected hindpaw; settings: Table B comparators; based on our data as well as data available in the literature; cited from earlier work
[2] = system: Male Holtzman rats, thermal injury; settings: Table B comparators; based on our data as well as data available in the literature; cited from earlier work
Male Holtzman rats [3] = settings: Table B comparators; based on our data as well as data available in the literature; cited from earlier work
Male Holtzman rats [4] = experiment: Behavioral deficits / side effects observed in thermal injury experiment (animals affected of n); format: in vivo, rat; settings: for Blistered paw / Catalepsy / Corneal response / Exopthalmos / Pinna response / Spontaneous agitation / Tactile allodynia: 10 mg/kg
Method: (§1) Briefly, the following protocol was followed. Male Holtzman rats (approximately 300 grams) were tested on thermal escape using a Hargreaves type apparatus. Under light anesthesia, a thermal injury (52° C. for 45 seconds) was applied to one heel. The animals were tested for thermal escape latency of the injured and uninjured paw before and at 30, 60, 80 and 120 minutes after injury. Drug (a TRPV3 inhibitor or morphine) or vehicle (0.5% methylcellulose) was administered after the baseline measurement and approximately 15-20 minutes prior to the thermal injury. In addition to the escape latency measurement, behavioral observations were made throughout the experiment.
Table A provides a comparison of the side-effects observed in rats following administration of TRPV3 inhibitor 64, at varying concentrations, versus the side-effects observed in rats administered 10 mg/kg of morphine. Side-effects of rats administered 0.5% methycellulouse were observed and served as a control.

[5] = system: Male Holtzman rats, thermal injury; experiment: Thermal injury model, thermal escape latency (Hargreaves); format: in vivo, rat
Method: The thermal injury model was used to evaluate the effectiveness of an exemplary TRPV3 inhibitor in the treatment of nociceptive pain. FIG. 1 provides a schematic representation of the protocol used to evaluate a TRPV3 inhibitor in the thermal injury model.
as §1

[6] = system: rats, CFA injected hindpaw; settings: Table B comparators; based on our data as well as data available in the literature; cited from earlier work
[7] = system: Male Holtzmann rats, intraplantar formalin; settings: Table B comparators; based on our data as well as data available in the literature; cited from earlier work

CN1CC[C@]23c4c5ccc(O)c4O[C@H]2[C@@H](O)C=C[C@H]3[C@H]1C5 [Morphine, morphine]
Carrageenan Model [1]: Effective
Acute thermal injury [2]: Effective
Non-narcotic (Male Holtzman rats [3]): Narcotic
Blistered paw (Male Holtzman rats [4]; Pre Injury Observation): 0 of 7
Catalepsy (Male Holtzman rats [4]; Pre Injury Observation): 0 of 7
Corneal response (Male Holtzman rats [4]; Pre Injury Observation): 0 of 7
Exopthalmos (Male Holtzman rats [4]; Pre Injury Observation): 0 of 7
Pinna response (Male Holtzman rats [4]; Pre Injury Observation): 0 of 7
Spontaneous agitation (Male Holtzman rats [4]; Pre Injury Observation): 0 of 7
Tactile allodynia (Male Holtzman rats [4]; Pre Injury Observation): 0 of 7
Blistered paw (Male Holtzman rats [4]; t = 30 min): 0 of 7
Catalepsy (Male Holtzman rats [4]; t = 30 min): 4 of 7
Corneal response (Male Holtzman rats [4]; t = 30 min): 0 of 7
Exopthalmos (Male Holtzman rats [4]; t = 30 min): 6 of 7
Pinna response (Male Holtzman rats [4]; t = 30 min): 5 of 7
Spontaneous agitation (Male Holtzman rats [4]; t = 30 min): 0 of 7
Tactile allodynia (Male Holtzman rats [4]; t = 30 min): 0 of 7
Blistered paw (Male Holtzman rats [4]; t = 60 min): 0 of 7
Catalepsy (Male Holtzman rats [4]; t = 60 min): 3 of 7
Corneal response (Male Holtzman rats [4]; t = 60 min): 0 of 7
Exopthalmos (Male Holtzman rats [4]; t = 60 min): 6 of 7
Pinna response (Male Holtzman rats [4]; t = 60 min): 2 of 7
Spontaneous agitation (Male Holtzman rats [4]; t = 60 min): 0 of 7
Tactile allodynia (Male Holtzman rats [4]; t = 60 min): 0 of 7
Blistered paw (Male Holtzman rats [4]; t = 90 min): 0 of 7
Catalepsy (Male Holtzman rats [4]; t = 90 min): 1 of 7
Corneal response (Male Holtzman rats [4]; t = 90 min): 0 of 7
Exopthalmos (Male Holtzman rats [4]; t = 90 min): 6 of 7
Pinna response (Male Holtzman rats [4]; t = 90 min): 0 of 7
Spontaneous agitation (Male Holtzman rats [4]; t = 90 min): 0 of 7
Tactile allodynia (Male Holtzman rats [4]; t = 90 min): 0 of 7
Blistered paw (Male Holtzman rats [4]; t = 120 min): 0 of 7
Catalepsy (Male Holtzman rats [4]; t = 120 min): 0 of 7
Corneal response (Male Holtzman rats [4]; t = 120 min): 0 of 7
Exopthalmos (Male Holtzman rats [4]; t = 120 min): 0 of 7
Pinna response (Male Holtzman rats [4]; t = 120 min): 0 of 7
Spontaneous agitation (Male Holtzman rats [4]; t = 120 min): 0 of 7
Tactile allodynia (Male Holtzman rats [4]; t = 120 min): 0 of 7
Side-effects of administration (Male Holtzman rats [4]; morphine 10 mg/kg): exopthalmos (bulging eyes), catalepsy (a near catatonic state), and the pinna response
Effect on escape latency of injured and un-injured paw ([5]; morphine (FIG. 4)): does have an effect on both the injured and un-injured paw
Thermal escape latency after treatment ([5]; morphine, FIG. 4 legend): elevated above the baseline
CFA Model [6]: Effective

O=C(NCc1ccc(C(F)(F)F)cc1)Nc1cccc2cnccc12 [TRPV1 Antagonist]
Carrageenan Model [1]: Effective
Acute thermal injury [2]: Effective
Formalin Model [7]: Ineffective
CFA Model [6]: Effective

From patent publication US8916550B2, “Compounds for modulating TRPV3 function” (Hydra Biosciences, Inc., priority 2005, dated 2014)
